{
  "source": "ChEMBL document CHEMBL6078687",
  "about": "(J Med Chem, 2024)",
  "data": [
    {"test": "Inhibition of neuraminidase in Influenza A virus A/Babol/36/2005 H3N2 using MUNANA as substrate incubated for 40 mins by […] based assay", "conditions": "not given", "units": {"IC50": "µM"}, "values": [
      {"smiles": "CCC(CC)O[C@@H]1C=C(C(=O)O)C[C@H](NCc2ccc(OCc3ccc(B(O)O)cc3)c(Cl)c2)[C@H]1NC(C)=O", "IC50": 7.17},
      {"smiles": "CCC(CC)O[C@@H]1C=C(C(=O)O)C[C@H](NCc2cccc(OCc3ccc(B(O)O)cc3)c2)[C@H]1NC(C)=O", "IC50": 3.31},
      {"smiles": "CCC(CC)O[C@@H]1C=C(C(=O)O)C[C@H](NCc2cc(C)c(OCc3ccc(B(O)O)cc3)c(C)c2)[C@H]1NC(C)=O", "IC50": 41.8},
      {"smiles": "CCC(CC)O[C@@H]1C=C(C(=O)O)C[C@H](NCc2ccc(OCc3ccc(B(O)O)cc3)cc2Br)[C@H]1NC(C)=O", "IC50": 0.34},
      {"smiles": "CC(=O)N[C@H]1[C@H]([C@H](O)[C@H](O)CO)OC(C(=O)O)=C[C@@H]1NC(=N)N", "note": "[ZANAMIVIR]", "IC50": 0.038},
      {"smiles": "CCC(CC)O[C@@H]1C=C(C(=O)O)C[C@H](NCc2ccc(C(=O)Nc3ccc(B(O)O)cc3)cc2)[C@H]1NC(C)=O", "IC50": 1.64},
      {"smiles": "CCC(CC)O[C@@H]1C=C(C(=O)O)C[C@H](NCc2ccc(OCc3ccc(B(O)O)cc3)c(OC)c2)[C@H]1NC(C)=O", "IC50": 28.6},
      {"smiles": "CCC(CC)O[C@@H]1C=C(C(=O)O)C[C@H](NCc2ccc(OCc3cccc(B(O)O)c3)c(C)c2)[C@H]1NC(C)=O", "IC50": 11.5},
      {"smiles": "CCC(CC)O[C@@H]1C=C(C(=O)O)C[C@H](NCc2ccc(OCc3cccc(B(O)O)c3)c(OC)c2)[C@H]1NC(C)=O", "IC50": 23.7},
      {"smiles": "CCC(CC)O[C@@H]1C=C(C(=O)O)C[C@H](NCc2ccc(Oc3cccc(B(O)O)c3)cc2)[C@H]1NC(C)=O", "IC50": 0.76},
      {"smiles": "CCC(CC)O[C@@H]1C=C(C(=O)O)C[C@H](NCc2ccc(OCc3cccc(B(O)O)c3)c(Br)c2)[C@H]1NC(C)=O", "IC50": 14.1},
      {"smiles": "CCC(CC)O[C@@H]1C=C(C(=O)O)C[C@H](NCc2ccc(OCc3ccc(B(O)O)cc3)cc2OC)[C@H]1NC(C)=O", "IC50": 0.51},
      {"smiles": "CCC(CC)O[C@@H]1C=C(C(=O)O)C[C@H](NCc2ccc(-c3ccsc3)cc2OC)[C@H]1NC(C)=O", "IC50": 8.46},
      {"smiles": "CCC(CC)O[C@@H]1C=C(C(=O)O)C[C@H](NCc2ccc(OCc3cccc(B(O)O)c3)cc2OC)[C@H]1NC(C)=O", "IC50": 0.95},
      {"smiles": "CCC(CC)O[C@@H]1C=C(C(=O)O)C[C@H](NCc2cccc(OCc3ccccc3B(O)O)c2)[C@H]1NC(C)=O", "IC50": 7.88},
      {"smiles": "CCC(CC)O[C@@H]1C=C(C(=O)O)C[C@H](NCc2ccc(OCc3cccc(B(O)O)c3)c(F)c2)[C@H]1NC(C)=O", "IC50": 1.83},
      {"smiles": "CCC(CC)O[C@@H]1C=C(C(=O)O)C[C@H](NCc2cc(C)c(OCc3cccc(B(O)O)c3)c(C)c2)[C@H]1NC(C)=O", "IC50": 8.79},
      {"smiles": "CCC(CC)O[C@@H]1C=C(C(=O)O)C[C@H](NCc2ccc(OCc3ccc(B(O)O)cc3)c(F)c2)[C@H]1NC(C)=O", "IC50": 0.65},
      {"smiles": "CCC(CC)O[C@@H]1C=C(C(=O)O)C[C@H](NCc2ccc(OCc3cccc(B(O)O)c3)c(Cl)c2)[C@H]1NC(C)=O", "IC50": 6.66},
      {"smiles": "CCC(CC)O[C@@H]1C=C(C(=O)O)C[C@H](NCc2ccccc2OCc2cccc(B(O)O)c2)[C@H]1NC(C)=O", "IC50": 5.08}
    ]},
    {"test": "Inhibition of neuraminidase in Influenza A virus A/Goose/Guangdong/SH7/2013 H5N1 using MUNANA as substrate incubated for 40 mins by […] based assay", "conditions": "not given", "units": {"IC50": "µM"}, "values": [
      {"smiles": "CCC(CC)O[C@@H]1C=C(C(=O)O)C[C@H](NCc2ccc(OCc3ccc(B(O)O)cc3)c(Cl)c2)[C@H]1NC(C)=O", "IC50": 3.95},
      {"smiles": "CCC(CC)O[C@@H]1C=C(C(=O)O)C[C@H](NCc2cccc(OCc3ccc(B(O)O)cc3)c2)[C@H]1NC(C)=O", "IC50": 1.16},
      {"smiles": "CCC(CC)O[C@@H]1C=C(C(=O)O)C[C@H](NCc2cc(C)c(OCc3ccc(B(O)O)cc3)c(C)c2)[C@H]1NC(C)=O", "IC50": 19},
      {"smiles": "CCC(CC)O[C@@H]1C=C(C(=O)O)C[C@H](NCc2ccc(OCc3ccc(B(O)O)cc3)cc2Br)[C@H]1NC(C)=O", "IC50": 0.071},
      {"smiles": "CCC(CC)O[C@@H]1C=C(C(=O)O)C[C@H](NCc2ccc(C(=O)Nc3ccc(B(O)O)cc3)cc2)[C@H]1NC(C)=O", "IC50": 0.97},
      {"smiles": "CCC(CC)O[C@@H]1C=C(C(=O)O)C[C@H](NCc2ccc(OCc3ccc(B(O)O)cc3)c(OC)c2)[C@H]1NC(C)=O", "IC50": 51.8},
      {"smiles": "CCC(CC)O[C@@H]1C=C(C(=O)O)C[C@H](NCc2ccc(OCc3cccc(B(O)O)c3)c(C)c2)[C@H]1NC(C)=O", "IC50": 8.09},
      {"smiles": "CCC(CC)O[C@@H]1C=C(C(=O)O)C[C@H](NCc2ccc(OCc3cccc(B(O)O)c3)c(OC)c2)[C@H]1NC(C)=O", "IC50": 43.5},
      {"smiles": "CCC(CC)O[C@@H]1C=C(C(=O)O)C[C@H](NCc2ccc(Oc3cccc(B(O)O)c3)cc2)[C@H]1NC(C)=O", "IC50": 0.14},
      {"smiles": "CCC(CC)O[C@@H]1C=C(C(=O)O)C[C@H](NCc2ccc(OCc3cccc(B(O)O)c3)c(Br)c2)[C@H]1NC(C)=O", "IC50": 6.93},
      {"smiles": "CCC(CC)O[C@@H]1C=C(C(=O)O)C[C@H](NCc2ccc(OCc3ccc(B(O)O)cc3)cc2OC)[C@H]1NC(C)=O", "IC50": 1.75},
      {"smiles": "CCC(CC)O[C@@H]1C=C(C(=O)O)C[C@H](NCc2ccc(-c3ccsc3)cc2OC)[C@H]1NC(C)=O", "IC50": 1.5},
      {"smiles": "CCC(CC)O[C@@H]1C=C(C(=O)O)C[C@H](NCc2ccc(OCc3cccc(B(O)O)c3)cc2OC)[C@H]1NC(C)=O", "IC50": 0.79},
      {"smiles": "CCC(CC)O[C@@H]1C=C(C(=O)O)C[C@H](NCc2cccc(OCc3ccccc3B(O)O)c2)[C@H]1NC(C)=O", "IC50": 7.02},
      {"smiles": "CCC(CC)O[C@@H]1C=C(C(=O)O)C[C@H](NCc2ccc(OCc3cccc(B(O)O)c3)c(F)c2)[C@H]1NC(C)=O", "IC50": 0.073},
      {"smiles": "CCC(CC)O[C@@H]1C=C(C(=O)O)C[C@H](NCc2cc(C)c(OCc3cccc(B(O)O)c3)c(C)c2)[C@H]1NC(C)=O", "IC50": 32.3},
      {"smiles": "CCC(CC)O[C@@H]1C=C(C(=O)O)C[C@H](NCc2ccc(OCc3ccc(B(O)O)cc3)c(F)c2)[C@H]1NC(C)=O", "IC50": 0.1},
      {"smiles": "CCC(CC)O[C@@H]1C=C(C(=O)O)C[C@H](NCc2ccc(OCc3cccc(B(O)O)c3)c(Cl)c2)[C@H]1NC(C)=O", "IC50": 2.78},
      {"smiles": "CCC(CC)O[C@@H]1C=C(C(=O)O)C[C@H](NCc2ccccc2OCc2cccc(B(O)O)c2)[C@H]1NC(C)=O", "IC50": 1.48}
    ]},
    {"test": "in vitro", "conditions": "human, liver microsomes", "units": {"microsomal CLint at 2 h": "µL/min/mg"}, "values": [
      {"smiles": "O=C(O)Cc1ccccc1Nc1c(Cl)cccc1Cl", "note": "[DICLOFENAC]", "microsomal CLint at 2 h": 222}
    ]},
    {"test": "in vitro", "conditions": "human, liver microsomes", "remark": "another data set of the same source", "units": {"CLint scaled at 2 h": "mL/min/kg"}, "values": [
      {"smiles": "O=C(O)Cc1ccccc1Nc1c(Cl)cccc1Cl", "note": "[DICLOFENAC]", "CLint scaled at 2 h": 200}
    ]}
  ]
}
